According to patent US20020037885A1, “Therapeutic compounds” (priority 1999, published 2002):
Like-named read-outs stand apart in the source and are kept apart here.

Columns and labels:
[1] = system: marble burying behaviour in mice; test: Mouse Marble Burying Assay (BUR); type: in vivo; settings: Mus musculus, sc
Method: This assay was carried out essentially according to the procedure described by Treit et al. (1981) Pharmacol Biochem Behav; 15; 619-626.
The results are presented as BUR ED50 (sc). This is the effective dose causing 50% inhibition of burying compared to control mice.

[2] = system: hyperpolarisation-activated inward cation current Ih in dorsal root ganglion (DRG) cells; test: Inhibition of hyperpolarisation-activated cation current (Ih), whole cell voltage clamp on cultured DRG cells; type: cell-based; settings: (-) log concentration at which Ih activation rate constant kact is reduced by 50%; mean; rat DRG cells
Method: A) determining the potency of compounds to inhibit the hyperpolarisation-activated inward cation current Ih in dorsal root ganglion (DRG) cells of the rat; the effect is measured as the decrease in Ih activation rate and is expressed as the half maximal effect concentration (IC50) or the negative logarithm of this IC50 (known as pIC50).
To obtain E15 DRGs, pregnant Wistar rats were sacrificed. Embryos were removed and spinal cords with DRG attached to both sides were dissected out and collected in Hanks balanced salt solution (HBSS; Gibco). DRG were separated from the spinal cord and pooled in HBSS without Ca^2+ and Mg^2+. Dissociation of intact DRG was started by incubation with a 0.25% trypsin solution for 30 min at 37° C. Trypsination was stopped by diluting the enzyme and centrifugation (1 min; 2500 rpm). After aspiration of the supernatant the tissue pellet was triturated with DMEMF10 (DMEM supplemented with 10% fetal bovine serum (Hyclone), 6 g/l glucose and 2 mM I-glutamine) and centrifuged for 10 min at 1700 rpm. Dissociated DRG cells were resuspended in culture medium (DMEMF10 with 50 ng/ml NGF 2.5S (Alomone labs)), counted and plated out in a density of 1-2.105 cells on collagen (50 μg/ml) and/or poly-l-lysine (10-20 μg/ml) coated glass coverslips in 24-well tissue culture plates. Plates were kept in a humidified incubator at 37° C. and 5% CO2 for 72 hrs. Glial cell proliferation was inhibited when necessary by adding cytosine arabinoside (Ara-c) at a concentration of 5.10^−7 M. After 3 days fresh culture medium was administered. Medium was subsequently changed every […].
DRG cells were sampled with the whole cell voltage clamp method. Glass electrodes were pulled from thick-walled borosilicate capillaries with filament (1 mm outer diameter). Pipette resistance was 2-5 MΩ. Series resistance (5-15 MΩ) was compensated for to ensure so that potential errors made in the determination of the actual membrane potential were less then 2 mV. Cell capacitance (10-75 pF) compensation was used to compensate for capacitive currents. The extracellular solution contained (in mM): NaCl 140; KCl 5; CaCl2 2; MgCl2 1; D(+) glucose 5.6;HEPES 5; Sucrose 30; pH=7.4. The pipette solution contained (in mM): K-gluconate 119; NaCl 5; KCl 13; CsCl 2; CaCl2 1; EGTA 10;HEPES 10; pH=7.2. Cells were preincubated for more then 1½ hours with different concentrations (1E-9 to 1E-4 M) of test compound dissolved in extracellular solution at room temperature (20° C.) in normal air. Larger cells that appeared round with a pronounced halo under phase-contrast microscopy were selected because almost all of them expressed Ih. Data were acquired with a Digidata 1200® analogue to digital interface using PCLAMP® software (both from Axon Instruments). For Ih activation the cell was held at −63 mV and stepped to −123mV (potentials after correction for liquid junction potential). Current traces were selected for soundness, averaged and fitted to a first order exponential using PCLAMP® software (fit between 60 and 950 ms to avoid biasing by transient currents). Activation time constants (τ) for Ih under different drug concentrations were derived from this fit. The activation rate constant for Ih is defined as kact=1/τ.
The pIC50 is the (-) log concentration of a compound at which the Ih activation rate constant kact is reduced by 50%. pIC50 for a compound could be estimated adequately by fitting kact to the logarithm of the concentration with a logistic function using PRISM® software (Graphpad Inc.). The function chosen is:
kact=A/(1+10^ (log([compound])+pIC50)); A is kact [compound]=0M.
Averaging all control measurements yields that A=3.52 s^−1 and the maximum kact was forced to this value for all compounds in this study. The Hill slope that normally is estimated in concentration-effect relations appeared to be about 1 and was subsequently fixed to this value. […]

[3] = system: REM sleep in male Wistar rats; test: Rat Sleep Analysis: suppression of REM sleep; type: in vivo; settings: first 3 hours after drug administration
Method: Suppression of REM sleep in male Wistar rats was measured after treatment with compounds according to the invention or reference antidepressants using the methods described by Ruigt et al.(Electroencephalography and clinic Neurophysiology, 1989, 73, pages 52-63 & 64-71)
The values reported in Table 1 are expressed as percentage change over placebo for the amount of REM sleep in the first 3 hours after drug administration.

[4] = effective dose causing 50% inhibition of burying compared to control mice, read-out: BUR ED50 (SC)
[5] = Table 2, read-out: BUR sc ED50(mg/kg)

Row | melting point | Compound | pIC50-Ih [2] | ED50 [1, 5] | also measured
1 | 174 to 185 °C | C=CCC(N)c1ccccc1-c1noc2cc(Cl)ccc12.Cl (stereo not drawn) [11(2), 2-(6-chloro-1,2-benzisoxazol-3-yl)-α-2-propenyl-benzenemethanamine hydrochloride] | 6.44 | – | ED50 [1, 4]: 0.7 mg/kg
2 | 146 to 149 °C | C=CC[C@H](N)c1ccccc1-c1noc2cc(F)ccc12.O=C(O)/C=C/C(=O)O [13(1), (S)-(−)-2-(6-fluoro-1,2-benzisoxazol-3-yl)-α-2-propenyl-benzenemethanamine (E)-butenedioate] | 6.13 | – | ED50 [1, 4]: 1 mg/kg
3 | 192 to 199 °C | C=CCC(N)c1ccccc1-c1ccc(Cl)s1.O=C(O)/C=C/C(=O)O (stereo not drawn) [15 (14), 2-(5-chlorothien-2-yl)-α-2-propenyl-benzenemethanamine (E)-butenedioate] | – | 19 mg/kg | –
4 | 144 to 145 °C | C=CCC(N)c1ccccc1-c1noc2c1CCCC2.O=C(O)/C=C\C(=O)O (stereo not drawn) [15 (25), 2-(4,5,6,7-tetrahydro-1,2-benzisoxazol-3-yl)-α-2-propenyl-benzenemethanamine (Z)-butenedioate] | – | 3.2 mg/kg | –
5 | 194 to 196 °C | C=CCC(N)c1ccccc1-c1cccc(C(F)(F)F)c1.O=C(O)/C=C/C(=O)O (stereo not drawn) [15 (34), 2-(3-trifluoromethylphenyl)-α-2-propenyl-benzenemethanamine (E)-butenedioate] | – | 6.9 mg/kg | –
6 | 213 to 215 °C | C=CCC(N)c1ccccc1-c1ccc(Cl)cc1F.O=C(O)/C=C/C(=O)O (stereo not drawn) [15 (37), 2-(4-chloro-2-fluorophenyl)-α-2-propenyl-benzenemethanamine (E)-butenedioate] | – | 9 mg/kg | –
7 | 246 to 248 °C | C=CCC(N)c1ccccc1-c1cncc2ccccc12.O=C(O)/C=C/C(=O)O (stereo not drawn) [16 (2), 2-(isoquinolin-4-yl)-α-2-propenyl-benzenemethanamine (E)-butenedioate] | – | 9.9 mg/kg | –
8 | 156 to 161 °C | C=CCC(N)c1ccccc1-c1nccs1.O=C(O)/C=C/C(=O)O (stereo not drawn) [16 (4), 2-(thiazol-2-yl)-α-2-propenyl-benzenemethanamine (E)-butenedioate] | – | 9 mg/kg | –
9 | 183 to 189 °C | C=CCC(N)c1ccccc1-c1noc2cnccc12.O=C(O)/C=C/C(=O)O (stereo not drawn) [16 (6), 2-(isoxazolo[5,4-c]pyridin-3-yl)-α-2-propenyl-benzenemethanamine (E)-butenedioate] | – | 3.8 mg/kg | –
10 | 151 to 153 °C | C=CCC(N)c1ccccc1-c1noc2ccncc12.O=C(O)/C=C\C(=O)O (stereo not drawn) [16 (7), 2-(isoxazolo[4,5-c]pyridin-3-yl)-α-2-propenyl-benzenemethanamine (Z)-butenedioate] | – | 7.6 mg/kg | –
11 | 210 to 246 °C (dec.) | Cl.NC(Cc1ccccc1)c1ccccc1-c1noc2ccccc12 (stereo not drawn) [36(1), 2-(1,2-benzisoxazol-3-yl)-α-benzyl-benzenemethanamine hydrochloride] | – | – | ED50 [1, 4]: 2.5 mg/kg
12 | 264 to 267 °C | Cl.NC(Cc1ccsc1)c1ccccc1-c1noc2ccccc12 (stereo not drawn) [36(2), 2-(1,2-benzisoxazol-3-yl)-α-[(thien-3-yl)-methyl)-benzenemethanamine hydrochloride] | – | – | ED50 [1, 4]: 1.2 mg/kg
13 | – | CN(C)CCC=C1c2ccccc2CCc2ccccc21 [Am, Amitriptyline] | – | – | percentage change over placebo for the amount of REM sleep ([3]; dose 4.6 mg/kg IP): −22%; percentage change over placebo for the amount of REM sleep ([3]; dose 10 mg/kg IP): −100%
14 | 191 °C | C=CCC(N)c1ccccc1-c1noc2ccccc12.Cl (stereo not drawn) [Example 11, 2-(1,2-Benzisoxazol-3-yl)-α-2-propenyl-benzenemethanamine Hydrochloride] | – | – | percentage change over placebo for the amount of REM sleep ([3]; dose 0.32 mg/kg IP): −44%; percentage change over placebo for the amount of REM sleep ([3]; dose 1 mg/kg IP): −88%; ED50 [1, 4]: 1.04 mg/kg
15 | 191 °C | C=CC[C@@H](N)c1ccccc1-c1noc2ccccc12.Cl [Example 12, (R)-2-(1,2-Benzisoxazol-3-yl)-α-2-propenyl-benzenemethanamine Hydrochloride] | 5.12 | – | –
16 | 174 to 176 °C | C=CC[C@H](N)c1cc(F)ccc1-c1noc2ccccc12.O=C(O)/C=C/C(=O)O [Example 13(3), (S)-(−)-2-(1,2-benzisoxazol-3-yl)-5-fluoro-α-2-propenyl-benzenemethanamine (E)-butenedioate] | 5.98 | – | –
17 | 191 °C | C=CC[C@H](N)c1ccccc1-c1noc2ccccc12.Cl [Example 13, (S)-2-(1,2-Benzisoxazol-3-yl)-α-2-propenyl-benzenemethanamine Hydrochloride] | 6.48 | – | percentage change over placebo for the amount of REM sleep ([3]; dose 0.1 mg/kg IP): −17%; percentage change over placebo for the amount of REM sleep ([3]; dose 0.32 mg/kg IP): −26%; percentage change over placebo for the amount of REM sleep ([3]; dose 1 mg/kg IP): −100%; ED50 [1, 4]: 0.39 mg/kg
18 | – | CCCCC(N)c1ccccc1-c1noc2ccccc12.Cl (stereo not drawn) [Example 15, 2-(1,2-Benzisoxazol-3-yl)-α-butyl-benzenemethanamine Hydrochloride] | 5.98 | – | –
19 | 169 to 178 °C | C=CC[C@H](N)c1ccccc1-c1noc2cc(Cl)ccc12.Cl [Example 19(2), (S)-(−)-2-(6-chloro-1,2-benzisoxazol-3-yl)-α-2-propenyl-benzenemethanamine hydrochloride] | 6.79 | – | –
20 | 165 °C | O=C(O)C(=O)O.c1ccc(CNCc2ccccc2-c2noc3ccccc23)cc1 [Example 21(3), 2-(1,2-benzisoxazol-3-yl)-N-benzyl-benzenemethanamine ethanedioate] | 5.06 | – | –
21 | – | CC(O)c1ccccc1-c1noc2ccccc12 (stereo not drawn) [Example 27, 2-(1,2-Benzisoxazol-3-yl)-α-methyl-benzenemethanol] | 5.50 | – | –
22 | 229 to 236 °C | CC(N)c1ccccc1-c1noc2ccccc12.Cl (stereo not drawn) [Example 39, 2-(1,2-Benzisoxazol-3-yl)-α-methyl-benzenemethanamine Hydrochloride] | 5.24 | – | –
23 | – | COCCCC/C(=N\OCCN)c1ccc(C(F)(F)F)cc1 [Fl, Fluvoxamine] | – | – | percentage change over placebo for the amount of REM sleep ([3]; dose 4.6 mg/kg IP): 40%; percentage change over placebo for the amount of REM sleep ([3]; dose 22 mg/kg IP): −100%
24 | – | O=C(NCCN1CCOCC1)c1ccc(Cl)cc1 [Mo, Moclobemide] | – | – | percentage change over placebo for the amount of REM sleep ([3]; dose 10 mg/kg IP): −61%; percentage change over placebo for the amount of REM sleep ([3]; dose 32 mg/kg IP): −100%
25 | – | COc1ccc(C(CN(C)C)C2(O)CCCCC2)cc1 (stereo not shown) [Ve, Venlafaxine] | – | – | percentage change over placebo for the amount of REM sleep ([3]; dose 3.2 mg/kg IP): −77%
